Where two headings read alike, the source gives them in different places.
Tests used:
[1] = tested on: wild pansy (Viola tricolor, VIOTR); test: Postemergence herbicidal activity, greenhouse trial (visual injury 0-100%); format: in vivo; details: Viola tricolor, post-emergence, read-out: % visual injury Obs
How it was run: (§1)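 Greenhouse plants at the 2nd–3rd true-leaf stage (14 h photoperiod, ~23/22 °C) were track-sprayed at 187 L/ha with acetone/DMSO stocks diluted in 1.5% v/v crop oil concentrate. Rates were g ae/ha for component (a) and g ai/ha for (b). Injury versus solvent-blank controls was rated visually at 20–22 d, with Colby's equation giving expected mixture effects.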

[2] = tested on: winter rape (Brassica napus, BRSNW); test: as above; format: in vivo
[3] = tested on: sunflower (Helianthus annuus, HELAN); test: as above; format: in vivo
[4] = tested on: brown mustard (Brassica juncea, BRSJU); test: as above; format: in vivo; details: bensulfuron 17.5 g ai/ha
[5] = tested on: nutsedge (Cyperus esculentus, CYPES); test: as above; format: in vivo; details: Cyperus, post-emergence, read-out: % visual injury Obs
How it was run: (§2)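 Greenhouse-grown plants at the second to third true leaf stage were sprayed with two-way mixtures in 1.5% v/v Agri-dex crop oil concentrate at 187 L/ha; rates in g ae/ha for component (a) and g ai/ha for component (b). Injury scored visually 0–100% versus solvent-blank controls after 20–22 d, with expected mixture effects from Colby's equation.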

[6] = tested on: poinsettia (Euphorbia heterophylla, EPHHL); test: as above; format: in vivo
How it was run: as §2

[7] = tested on: winter wheat (Triticum aestivum, TRZAW); test: Postemergence crop injury (phytotoxicity), greenhouse trial (visual injury 0-100%)
Procedure: (§3) Seeds of the desired test plant species were planted in Sun Gro MetroMix® 306 planting mixture, which typically has a pH of 6.0 to 6.8 and an organic matter content of about 30 percent, in plastic pots with a surface area of 103.2 square centimeters (cm^2). […] The plants were grown for 7-36 days (d) in a greenhouse with an approximate 14-hour (h) photoperiod which was maintained at about 23° C. during the day and 22° C. during the night. Nutrients and water were added on a regular basis and supplemental lighting was provided with overhead metal halide 1000-Watt lamps as necessary. The plants were employed for testing when they reached the second or third true leaf stage.
(§4) Weighed amounts of technical material were dissolved in a volume of 97:3 volume per volume (v/v) acetone/dimethyl sulfoxide (DMSO) to stock solutions. […] The concentrated stock solutions were diluted with an aqueous mixture of 1.5% v/v of Agri-dex crop oil concentrate to provide the appropriate application rates. Compound requirements are based upon a 12 milliliter (mL) application volume at a rate of 187 liters per hectare (L/ha). Spray solutions of the experimental compound mixtures were prepared by adding the stock solutions to the appropriate amount of dilution solution to form a 12 mL spray solution in two-way combinations. Formulated compounds were applied to the plant material with an overhead Mandel track sprayer equipped with 8002E nozzles calibrated to deliver 187 L/ha over an application area of 0.503 square meters (m^2) at a spray height of 18 inches (43 centimeters (cm)) above average plant canopy. Control plants were sprayed in the same manner with the solvent blank. Application rates for component (a) are in g ae/ha, and application rates for component (b) are in g ai/ha.
(§5) The treated plants and control plants were placed in a greenhouse as described above and watered by sub-irrigation to prevent wash-off of the test compounds. After 20-22 d, the condition of the test plants as compared with that of the control plants was determined visually and scored on a scale of 0 to 100 percent where 0 corresponds to no injury and 100 corresponds to complete kill. The condition of the test plants was compared with that of the control plants as determined visually and scored on a scale of 0 to 100 percent, where 0 corresponds to no injury and 100 corresponds to complete kill. Colby's equation was used to determine the herbicidal effects expected from the mixtures.
Compound 2 was combined with florasulam and applied to winter wheat (TRZAW) and the phytotoxicity of the herbicidal composition was measured. In addition, the efficacy of the herbicidal composition on poinsettia (Euphorbia heterophylla, EPHHL) and […] (Cyperus esculentus, CYPES) was evaluated.
Weighed amounts of technical or formulated material (emulsifiable concentrate (EC) or soluble concentrate (SL)) were dissolved in a volume of 97:3 volume per volume (v/v) acetone/dimethyl sulfoxide (DMSO) to stock solutions. […] The concentrated stock solutions were diluted with an aqueous mixture of 1.5% v/v of Agri-dex crop oil concentrate to provide the appropriate application rates. Compound requirements are based upon a 12 milliliter (mL) application volume at a rate of 187 liters per hectare (L/ha). Spray solutions of the experimental compound mixtures were prepared by adding the stock solutions to the appropriate amount of dilution solution to form a 12 mL spray solution in two-way combinations. […]

[8] = tested on: kochia (Kochia scoparia, KCHSC); test: Postemergence herbicidal activity, greenhouse trial (visual injury 0-100%); format: in vivo
How it was run: as §1

[9] = tested on: pigweed (Amaranthus retroflexus, AMARE); test: as above; format: in vivo
How it was run: as §1

[10] = tested on: common lambsquarters (Chenopodium album L., CHEAL); test: as above; format: in vivo
How it was run: as §1

[11] = tested on: ivyleaf morning-glory (Ipomoea hederacea, IPOHE); test: as above; format: in vivo
How it was run: as §1

[12] = tested on: common rice (Oryza sativa, ORYSA); test: Postemergence crop injury (phytotoxicity), greenhouse trial (visual injury 0-100%)
Procedure: as §3
(§6) Weighed amounts of technical or formulated material (emulsifiable concentrate (EC) or soluble concentrate (SL)) were dissolved in a volume of 97:3 volume per volume (v/v) acetone/dimethyl sulfoxide (DMSO) to stock solutions. […] The concentrated stock solutions were diluted with an aqueous mixture of 1.5% v/v of Agri-dex crop oil concentrate to provide the appropriate application rates. Compound requirements are based upon a 12 milliliter (mL) application volume at a rate of 187 liters per hectare (L/ha). Spray solutions of the experimental compound mixtures were prepared by adding the stock solutions to the appropriate amount of dilution solution to form a 12 mL spray solution in two-way combinations. Formulated compounds were applied to the plant material with an overhead Mandel track sprayer equipped with 8002E nozzles calibrated to deliver 187 L/ha over an application area of 0.503 square meters (m^2) at a spray height of 18 inches (43 centimeters (cm)) above average plant canopy. Control plants were sprayed in the same manner with the solvent blank. Application rates for component (a) are in g ae/ha, and application rates for component (b) are in g ai/ha.
as §5
(§7) Compound 1 was formulated as an EC and was combined with florasulam, cloransulam, diclosulam, flumetsulam, penoxsulam, or pyroxsulam. Compound 2 was formulated as an EC and was combined with florasulam or pyroxsulam. The mixtures were applied to winter wheat (TRZAW), common rice (ORYSA), maize (ZEAMX), and the phytotoxicity of the herbicidal compositions was measured. In addition, the efficacy of the herbicidal compositions on blackgrass (Alopecurus myosuroides, ALOMY), pigweed (Amaranthus retrollexus, AMARE), wild oat (Avena fatua, AVEFA), common lambsquarters (Chenopodium album L., CHEAL), thistle (Cirsium arvense CIRAR), nutsedge (Cyperus esculentus, CYPES), barnyardgrass (Echinochloa crus-galli, ECHCG), poinsettia (Euphorbia heterophylla, EPHHL), ivyleaf morning-glory (Ipomoea hederacea, IPOHE), kochia (Kochia scoparia, KCHSC), wild buckwheat (Polygonum convolvulus, POLCO), grain sorghum (Sorghum vulgare, SORVU), chickweed (Stellaria media, STEME), wild pansy (Viola tricolor, VIOTR), was evaluated.
(§8) Weighed amounts of technical material were dissolved in a volume of 97:3 volume per volume (v/v) acetone/dimethyl sulfoxide (DMSO) to stock solutions. […] The concentrated stock solutions were diluted with an aqueous mixture of 1.5% v/v of Agri-dex crop oil concentrate to provide the appropriate application rates. Compound requirements are based upon a 12 milliliter (mL) application volume at a rate of 187 liters per hectare (L/ha). […]

maize (Zea mays, ZEAMX) = test: as above
Procedure: as §3, §6, §5, §7, §8

[13] = tested on: thistle (Cirsium arvense, CIRAR); test: Postemergence herbicidal activity, greenhouse trial (visual injury 0-100%); format: in vivo; details: Cirsium arvense, post-emergence, read-out: % visual injury Obs
How it was run: as §1

[14] = tested on: wild buckwheat (Polygonum convolvulus, POLCO); test: as above; format: in vivo; details: Fallopia convolvulus, post-emergence, 11.2 g ai/ha; read-out: % visual injury Obs
How it was run: as §1

[15] = tested on: spring rape (Brassica napus, BRSNN); test: as above; format: in vivo; details: 11.2 g ai/ha
[16] = tested on: turnip (Brassica rapa, BRSRR); test: as above; format: in vivo; details: 11.2 g ai/ha
Procedure: as §3, §4, §5
(§9) Compound 1 was formulated as an EC and was combined with imazamox, imazamethabenz, imazapic, imazapyr or imazethapyr. The mixtures were applied to winter wheat (TRZAW) and/or maize (ZEAMX), and the phytotoxicity of the herbicidal compositions was measured. In addition, the efficacy of the herbicidal compositions on blackgrass (Alopecurus myosuroides, ALOMY), wild oat (Avena fatua, AVEFA), winter rape (Brassica napus, BRSNW), spring rape (Brassica napus, BRSNN), turnip (Brassica rapa, BRSRR), thistle (Cirsium arvense, CIRAR), large crabgrass (Digitaria sanguinalis, DIGSA), pigweed (Amaranthus retrollexus, AMARE), common lambsquarters (Chenopodium album L., CHEAL), poinsettia (Euphorbia heterophylla, EPHHL), ivyleaf morning-glory (Ipomoea hederacea, IPOHE), kochia (Kochia scoparia, KCHSC), wild buckwheat (Polygonum convolvulus, POLCO), grain sorghum (Sorghum vulgare, SORVU), chickweed (Stellaria media, STEME), wild pansy (Viola tricolor, VIOTR), sunflower (Helianthus annuus, HELAN), giant foxtail (Setaria faberi, SETFA), soybean (Glycine max, GLXMA), rutabaga (Brassica napus var. napobrassica, BRSNA) and barnyardgrass (Echinochloa crus-galli, ECHCG) was evaluated.

[17] = tested on: barnyardgrass (Echinochloa crus-galli, ECHCG); test: as above; format: in vivo
How it was run: as §1

[18] = tested on: blackgrass (Alopecurus myosuroides, ALOMY); test: as above; format: in vivo; details: 17.5 g ai/ha
How it was run: as §1

[19] = tested on: wild oat (Avena fatua, AVEFA); test: as above; format: in vivo
How it was run: as §1

[20] = tested on: rutabaga (Brassica napus var. napobrassica, BRSNA); test: as above; format: in vivo; details: 17.5 g ai/ha
Procedure: as §3, §4, §5, §9

[21] = tested on: large crabgrass (Digitaria sanguinalis, DIGSA); test: as above; format: in vivo; details: 17.5 g ai/ha
[22] = tested on: chickweed (Stellaria media, STEME); test: as above; format: in vivo; details: 100 g ai/ha
How it was run: as §1

[23] = tested on: grain sorghum (Sorghum vulgare, SORVU); test: as above; format: in vivo; details: 100 g ai/ha
How it was run: as §1

[24] = tested on: soybean (Glycine max, GLXMA); test: as above; format: in vivo; details: 100 g ai/ha
Procedure: as §3, §4, §5, §9

COC(=O)c1ccccc1CS(=O)(=O)NC(=O)Nc1nc(OC)cc(OC)n1
pest or weed control at 17.5 g/ha ([1]; VIOTR, bensulfuron 17.5 g ai/ha): 0% | % visual injury Obs ([2]; BRSNW, bensulfuron 17.5 g ai/ha): 70% | % visual injury Obs ([3]; HELAN, bensulfuron 17.5 g ai/ha): 10% | % visual injury Obs [4]: 93%

COc1ncc(F)c2nc(S(=O)(=O)Nc3c(F)cccc3F)nn12 [Florasulam, florasulam]
pest or weed control at 1.25 g/ha [5]: 15% | pest or weed control at 2.5 g/ha [5]: 75% | pest or weed control at 1.25 g/ha ([6]; Euphorbia heterophylla, post-emergence, read-out: % visual injury Obs): 0% | % visual injury Obs ([7]; 1.25 g ai/ha): 0% | % visual injury Obs ([7]; 2.5 g ai/ha): 0% | pest or weed control at 2.5 g/ha ([8]; Bassia scoparia, post-emergence, read-out: % visual injury Obs): 60% | pest or weed control at 1.25 g/ha ([9]; Amaranthus retroflexus, post-emergence, read-out: % visual injury Obs): 75% | pest or weed control at 1.25 g/ha ([10]; Chenopodium album, post-emergence, read-out: % visual injury Obs): 0% | pest or weed control at 1.25 g/ha ([11]; Ipomoea hederacea, post-emergence, read-out: % visual injury Obs): 98% | % visual injury Obs ([12]; 1.25 g ai/ha): 0% | % visual injury Obs ([12]; 2.5 g ai/ha): 0% | % visual injury Obs (maize (Zea mays, ZEAMX); 1.25 g ai/ha): 0% | % visual injury Obs (maize (Zea mays, ZEAMX); 2.5 g ai/ha): 0%

COCc1cnc(C2=NC(C)(C(C)C)C(=O)N2)c(C(=O)O)c1 (centres unmarked) [Imazamox, imazamox]
pest or weed control at 11.2 g/ha ([13]; 11.2 g ai/ha): 70% | pest or weed control at 11.2 g/ha [14]: 65% | % visual injury Obs [15]: 75% | % visual injury Obs [16]: 70%

CCc1cnc(C2=NC(C)(C(C)C)C(=O)N2)c(C(=O)O)c1 (centres unmarked) [Imazethapyr, imazethapyr]
pest or weed control at 17.5 g/ha ([13]; 17.5 g ai/ha): 30% | pest or weed control at 17.5 g/ha ([17]; Echinochloa crus-galli, post-emergence, 17.5 g ai/ha, read-out: % visual injury Obs): 70% | % visual injury Obs [18]: 10% | % visual injury Obs ([19]; 17.5 g ai/ha): 10% | pest or weed control at 17.5 g/ha ([1]; 17.5 g ai/ha): 5% | % visual injury Obs [20]: 20% | % visual injury Obs ([2]; 17.5 g ai/ha): 75% | % visual injury Obs [21]: 30%

imazamethabenz
% visual injury Obs ([6]; 100 g ai/ha): 50% | % visual injury Obs ([8]; 100 g ai/ha): 0% | % visual injury Obs ([9]; 100 g ai/ha): 0% | % visual injury Obs ([17]; 100 g ai/ha): 5% | % visual injury Obs [22]: 10% | % visual injury Obs ([10]; 100 g ai/ha): 20% | % visual injury Obs [23]: 0% | % visual injury Obs ([11]; 100 g ai/ha): 0% | % visual injury Obs ([19]; 100 g ai/ha): 20% | % visual injury Obs [24]: 30% | % visual injury Obs ([2]; 100 g ai/ha): 65% | % visual injury Obs ([3]; 100 g ai/ha): 5%

— US20190364896A1, “SYNERGISTIC WEED CONTROL FROM APPLICATIONS OF PYRIDINE CARBOXYLIC ACID HERBICIDES AND ALS INHIBITORS” (Dow AgroSciences LLC, priority 2014, published 2019)
